Test [1] relates to cultured human mast cells (CHMC). Briefly: CHMC low cell density IgE activation: tryptase and LTC4 assays. The class given is cell-based. The note with it: Homo sapiens, Mast cell, read-out: CHMC anti-IgE Tryptase. In outline:
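Cultured human mast cells at low density (1000-1500 per well) rested 1 h at 37° C, then stimulated with anti-IgE for 30 min at 37° C. Supernatant tryptase measured with fluorogenic substrate (30 min, room temperature); LTC4 quantified by ELISA on diluted supernatant.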

For test [2] the test system is unchanged. Briefly: CHMC low cell density ionomycin activation: tryptase assay. The class given is cell-based. To be noted: Homo sapiens, Mast cell, read-out: CHMC Ionomycin Tryptase.
Where [3] appears, read: Low Density CHMC, anti-IgE activation, tryptase readout.
Where [4] appears, read: Low Density CHMC, ionomycin activation, tryptase readout.

In the case of `O=[N+]([O-])c1cc(Nc2ccnc(Nc3ccc(Cl)c([N+](=O)[O-])c3)n2)ccc1Cl` [Compound R950154, N2,N4-Bis(4-chloro-3-nitrophenyl)-2,4-pyrimidinediamine], the figures for the IC50 in test [1] and in test [2] were 2.08 µM and over 10 µM, respectively.

Take `OCc1cccc(Nc2nc(Nc3ccc4c(c3)OCCO4)ncc2F)c1` [Compound R925758, N2-(3,4-Ethylenedioxyphenyl)-5-fluoro-N4-[3-(hydroxymethyl)phenyl]-2,4-pyrimidinediamine]: the values for the IC50 in test [1] (setting [3]) and in test [2] (setting [4]) were 1.18 µM and over 10 µM, respectively.

As for `Oc1cccc(Nc2nc(Cl)c(Cl)c(Nc3cccc(O)c3)n2)c1` [Compound R926591, N2,N4-Bis(3-hydroxyphenyl)-5,6-dichloro-2,4-pyrimidinediamine], the IC50 is 2.62 µM in test [1] (setting [3]) and over 10 µM in test [2] (setting [4]).

On to `O=[N+]([O-])c1cc(Nc2ncc(F)c(Nc3ccc(F)c([N+](=O)[O-])c3)n2)ccc1F` [Compound R950148, N2,N4-Bis(4-fluoro-3-nitrophenyl)-5-fluoro-2,4-pyrimidinediamine], for which the IC50 is 2.27 µM in test [1] and over 10 µM in test [2].

On to `Oc1cccc(Nc2ncc(F)c(NC(c3ccc(Cl)cc3)c3ccc(Cl)cc3)n2)c1` [Compound R935019, 5-Fluoro-N2-(3-hydroxyphenyl)-N4-[di-(4-chlorophenyl)methyl]-2,4-pyrimidinediamine], for which the IC50 in test [1] (setting [3]) is 8.8 µM; in test [2] (setting [4]), over 10 µM.

As for `OCCOc1cccc(Nc2nc(Nc3ccc4c(c3)OCCO4)ncc2F)c1` [Compound R935176, N2-(3,4-Ethylenedioxyphenyl)-5-fluoro-N4-[3-(2-hydroxyethoxy)phenyl]-2,4-pyrimidinediamine], the figures for the IC50 in test [1] (setting [3]) and in test [2] (setting [4]) were 1.17 µM and over 10 µM, respectively.

In the case of `COc1ccc(Nc2ncc(F)c(Nc3ccc4c(c3)OCCO4)n2)c(OC)c1` [Compound R926789, N2-(2,4-Dimethoxyphenyl)-N4-(3,4-ethylenedioxyphenyl)-5-fluoro-2,4-pyrimidinediamine], the figures for the IC50 in test [1] (setting [3]) and in test [2] (setting [4]) were 2.31 µM and over 10 µM, respectively.

With `CC(Nc1nc(Nc2cccc(O)c2)ncc1F)c1ccc(F)cc1` (racemic) [Compound R935021, (±)-5-Fluoro-N4-[1-(4-fluorophenyl)ethyl]-N2-(3-hydroxyphenyl)-2,4-pyrimidinediamine], the IC50 in test [1] (setting [3]) and in test [2] (setting [4]) was over 10 µM in each case.

For the compound `OCCOc1ccc(Nc2ncc(F)c(Nc3ccc4c(c3)OCCO4)n2)cc1` [Compound R945144, N4-(3,4-Ethylenedioxyphenyl)-5-fluoro-N2-[4-(2-hydroxyethyloxy)phenyl]-2,4-pyrimidinediamine], the figures for the IC50 in test [1] (setting [3]) and in test [2] (setting [4]) were 0.244 µM and over 10 µM, respectively.

For `Fc1cnc(NCCCN2CCN(Cc3c(F)cccc3Cl)CC2)nc1Nc1ccc2c(c1)OCCO2` [Compound R926717, N2-[3-[4-(2-Chloro-6-fluorobenzyl)piperazino]propyl]-N4-(3,4-ethylenedioxyphenyl)-5-fluoro-2,4-pyrimidinediamine], the IC50 was 7.87 µM in test [1] (setting [3]) and over 10 µM in test [2] (setting [4]).

For `c1coc(-c2cnc(Nc3ccc4c(c3)OCCO4)nc2Nc2ccc3c(c2)OCCO3)c1` [Compound R925785, N2,N4-Bis(3,4-ethylenedioxyphenyl)-5-(2-furanyl)-2,4-pyrimidinediamine], the IC50 was 2.5 µM in test [1] (setting [3]) and over 10 µM in test [2] (setting [4]).

Turning to `CNC(=O)C1Cc2cc(Nc3ncc(F)c(Nc4ccc(OC)nc4OC)n3)ccc2O1` (racemic) [Compound R927038, (±)-N4-(2,6-Dimethoxypyridin-3-yl)-N2-[2,3-dihydro-2-(N-methylamino)carbonylbenzofuran-5-yl]-5-fluoro-2,4-pyrimidinediamine], the values for the IC50 in test [1] (setting [3]) and in test [2] (setting [4]) were 1.05 µM and over 10 µM, respectively.

With `Fc1cnc(Nc2cccnc2)nc1Nc1ccc2c(c1)OCCO2` [Compound R920668, N4-(3,4-Ethylenedioxyphenyl)-5-fluoro-N2-(3-pyridyl)-2,4-pyrimidinediamine], the IC50 is 3.2 µM in test [1] (setting [3]) and over 10 µM in test [2] (setting [4]).
